In patent US10548895B2, “Ligands that target Plasmodium sporozoite binding sites on CD81 and therapeutic methods using them” (American University In Cairo (AUC), priority 2014, dated 2020):
“Also recorded” adds a separate entry of the source.

Tests used:
Plasmodium yoelii [1] = experiment: Sporozoite development assay, P. yoelii in HepG2-CD81 cells; assay type: cell-based; settings: for Percent Infection: HepG2-CD81, Plasmodium yoelii, 400 uM compound
Description: (§1) Anopheles stephensi mosquitoes were fed on mice infected with Plasmodium yoelii 17XNL parasites. On day 14 post bloodmeal, salivary glands were harvested, homogenized, sporozoite number was determined using a hemocytometer and the indicated number of sporozoites was added to cell monolayers, Plasmodium falciparum sporozoites were generated by membrane feeding An. stephensi mosquitoes using gametocyte cultures generated in vitro.
(§2) HepG2-CD81 (14) cells were maintained in DMEM supplemented with 10% fetal calf serum and 1 mM glutamine (DMEM/FCS), mAb 2E6 was used for development assays and is directed against Plasmodium Hsp 70 (15) and mAb 2A10 is directed against the repeat region of P. falciparum CSP and was used for invasion assays.
(§3) 5×10^5 HepG2-CD81 cells were plated on collagen coated Lab-Tek wells and allowed to adhere overnight. The following day, cells were preincubated with 400 uM of compound for 30 minutes at 37° C. Controls were pre-incubated with DMSO at the same concentration in which it was found in the compound solutions. 10^5 sporozoites were added to each well and in the case of P. falciparum, incubated for 1.5 hours and scored for invasion whereas in the case of P. yoelii, incubated for 44 hours and scored for exoerythrocytic stages.

Plasmodium yoelii [2] = experiment: Sporozoite infection assay, P. yoelii in Hepa1-6 cells; assay type: cell-based; settings: for Percent Infection: Hepa1-6 Cells, Plasmodium yoelii
Plasmodium falciparum = experiment: Sporozoite invasion assay, P. falciparum in HepG2-CD81 cells; assay type: cell-based; settings: for Percent Infection: HepG2-CD81, Plasmodium falciparum, 400 uM compound
Description: as §1, §2, §3

[3] = biological target: T1, native CD81 on Raji cells (Homo sapiens, UniProt P60033); experiment: Antibody neutralizing assay: inhibition of JS-81 anti-CD81 antibody binding on Raji cells (FACS); assay type: cell-based; settings: for inhibition at 50 µM / inhibition at 100 µM / inhibition at 400 µM / Inhibition of JS-81 Binding (%): Raji cells; for inhibition at 50 µM / inhibition at 100 µM / inhibition at 400 µM: read-out: Inhibition of JS-81 Binding (%)
T1 construct: endogenous in cells; host or cells: Raji cells (human B cell line)
T1 sequence (P60033 1-236): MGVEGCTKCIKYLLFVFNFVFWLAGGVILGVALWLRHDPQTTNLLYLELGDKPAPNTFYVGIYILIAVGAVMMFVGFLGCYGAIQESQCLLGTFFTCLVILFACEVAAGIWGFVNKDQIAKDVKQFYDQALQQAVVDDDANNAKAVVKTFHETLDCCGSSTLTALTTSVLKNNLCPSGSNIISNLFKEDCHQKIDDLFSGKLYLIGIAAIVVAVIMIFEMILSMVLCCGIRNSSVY
Description: For antibody neutralization assay Raji cells were used, a human B cell line that expressed high amounts of CD81 on the surface (data not shown), Cells were grown in RPMI medium (10% FCS, 1% penicillin/streptomycin, 1% L-glutamine, 1% non-essential amino acids, 1% sodium pyruvate, pH 7.4, at 37° C. with 5% CO2). 2×10^5 cells were incubated with or without different concentrations (50 μM, 100 μM, 400 μM and 1 mM) of indicated inhibitor for 20 min at room temperature, subsequently 1 ul (16 ng/μl) of FITC-labeled anti CD81 antibody (BD Pharmingen, 551108) was added to the cells and incubated for 20 min (antibody titration was performed to obtain a working dilution range, data not shown). Cells were washed and analyzed by FACS (BD FACSCalibur, software: Cell Quest Pro). Mean Fluorescence Intensity MFI was calculated using Flowjo software (TreesStar, www.flowjo.com).

Plasmodium berghei = experiment: Sporozoite infection assay, P. berghei in Hepa1-6 cells; assay type: cell-based; settings: for Percent Infection: Hepa1-6 Cells, Plasmodium berghei; for effect on infection (in words): Hepa1-6 cells
CD81-LEL = biological target: T2, CD81-LEL (Homo sapiens, UniProt P60033); experiment: Surface plasmon resonance binding of ligands to immobilized CD81-LEL; settings: for Binding (change in response units): 3 min association; for Dissociation 1 (change in response units) / Dissociation 2 (change in response units): dissociation interval
T2 construct: A recombinant form of the CD81-LEL protein with a GST tag; gift of Dr. Shoshana Levy, Stanford University
T2 sequence (P60033 113-201 limits assumed): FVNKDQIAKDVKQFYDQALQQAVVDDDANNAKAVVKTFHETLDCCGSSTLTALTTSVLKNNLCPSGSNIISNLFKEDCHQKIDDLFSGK
Description: SPR analysis was performed using a Biacore T200 workstation (GE Healthcare, NJ, USA). A recombinant form of the CD81-LEL protein with a GST tag (generously provided by Dr. Shoshana Levy, Stanford University) was used to confirm, using an established experimental technique, the binding of several ligands to the protein. Briefly, 10 μM CD81-LEL-GST diluted into 10 mM Na-Acetate buffer pH 4.5 was immobilized for 15 min at a flow speed of 5 μl/min onto a CM5 sensor chip using amine-coupling (EDC-NHS), Approximately 20,000 RU of protein were immobilized on the chip. The ligands were prepared as 600 μM solutions in PBS-0.05% Tween-80 (the running buffer) and they were introduced to the protein using a pre-programmed 3 minute association and 1 minute dissociation interval.
SPR analysis was performed using a Biacore T100 workstation (GE Healthcare, NJ, USA). […] Approximately 20,000 RU of protein were immobilized on the chip. The ligands were prepared as 200 uM solutions in PBS-1% DMSO (the running buffer) and they were introduced to the protein using a pre-programmed 3 min association and 1 min dissociation interval.

| inhibition at 50 µM ([3]; 50 μM ligand) | inhibition at 100 µM ([3]; 100 μM ligand) | inhibition at 400 µM ([3]; 400 μM ligand) | Binding (change in response units) (CD81-LEL; SPR) | Dissociation 1 (change in response units) (CD81-LEL; SPR) | Dissociation 2 (change in response units) (CD81-LEL; SPR) | Inhibition of JS-81 Binding (%) ([3]; 50 μM ligand) | Inhibition of JS-81 Binding (%) ([3]; 100 μM ligand) | Inhibition of JS-81 Binding (%) ([3]; 400 μM ligand) | SMILES | also measured |
| --- | --- | --- | --- | --- | --- | --- | --- | --- | --- | --- |
| 0% | 0% | 24% | – | – | – | – | – | – | COc1cc(-c2ccc(Nc3ccccc3C(=O)O)c(OC)c2)ccc1Nc1ccccc1C(=O)O [Ligand 73735, 2-[4-[4-(2-carboxylatoanilino)-3-methoxyphenyl]-2-methoxyanilino]benzoate] | Percent Infection (Plasmodium yoelii [1]): 23%; effect on infection (in words) (Plasmodium yoelii [1]; P. yoelii, HepG2-CD81): inhibit; also recorded: inhibitory effect; percentage of infection inhibition (Plasmodium yoelii [1]; P. yoelii, HepG2-CD81): 77%; Percent Infection (Plasmodium yoelii [2]): 38.3%; percentage of infection inhibition (Plasmodium yoelii [2]; P. yoelii, Hepa1-6): 61.7%; Percent Infection (Plasmodium falciparum): 3.2%; effect on infection (in words) (Plasmodium falciparum; P. falciparum): inhibit the infection; percentage of infection inhibition (Plasmodium falciparum; P. falciparum, HepG2-CD81): 96.8%; inhibition of anti-CD81 binding (in words) ([3]; 100 uM and 400 uM): inhibit anti-CD81 binding to CD81-LEL in a dose dependent manner; Percent Infection (Plasmodium berghei): 17.7%; percentage of infection inhibition (Plasmodium berghei; P. berghei, Hepa1-6): 82.3%; effect on infection (in words) (Plasmodium berghei; P. berghei): Inhibition; binding to CD81 by SPR (in words) (CD81-LEL): bind to CD81-LEL |
| – | – | – | 14.3 response units | 18.9 response units | 11.3 response units | – | – | – | O=C(O)Cn1ccc2ccccc21 [Ligand 75866, 2-indol-1-ylacetate] | Percent Infection (Plasmodium yoelii [1]): 42.6%; effect on infection (in words) (Plasmodium yoelii [1]; P. yoelii, HepG2-CD81): inhibit; also recorded: inhibitory effect; Percent Infection (Plasmodium yoelii [2]): 122%; effect on infection (in words) (Plasmodium yoelii [2]; P. yoelii, Hepa1-6 cells): didn't inhibit; Percent Infection (Plasmodium falciparum): 84.2%; Percent Infection (Plasmodium berghei): 135%; effect on infection (in words) (Plasmodium berghei; P. berghei): didn't inhibit |
| – | – | – | – | – | – | 0% | 0% | 24% | CC(=NO)C1CC(CC(=O)O)C1(C)C (stereo not drawn) [Ligand 127947] | – |
| 0% | 0% | 16% | 6.7 response units | 16.8 response units | 7.9 response units | – | – | – | O=C(Cn1ccc(=O)[nH]c1=O)Nc1ccc(C(=O)O)c(O)c1 [Ligand 93033, 4-[[2-(2,4-dioxopyrimidin-1-yl)acetyl]amino]-2-hydroxybenzoate] | binding-dissociation behavior (in words) (CD81-LEL; SPR): comparable binding and dissociation |
| – | – | – | – | – | – | 0% | 13% | 15% | NC(N)=N/N=C\c1c(Cl)cccc1Cl [Ligand 68982] | – |
| – | – | – | – | – | – | 0% | 0% | 19% | O=C(O)c1cc(O)ccc1N=Nc1ccccc1 [Ligand 106863] | – |
| – | – | – | – | – | – | 0% | 0% | 17% | O=C(O)c1ccc(N2CCCCC2)cc1O [Ligand 23895] | – |
| 0% | 0% | 21% | 36.6 response units | 35.9 response units | 28.1 response units | – | – | – | CC(C)=CCC1=C(OCC(=O)O)C(=O)c2ccccc2C1=O [Ligand 98026, 2-[3-(3-methylbut-2-enyl)-1,4-dioxonaphthalen-2-yl]oxyacetate] | – |
| – | – | – | – | – | – | 0% | 4% | 19% | Cc1ccc(-c2cc(C(=O)O)c3ccccc3n2)c(C)c1 [Ligand 25678] | – |
